Consider one molecule from patent US8748369B2, “Use of targeted nitroxide agents in bone healing” (University of Pittsburgh-Of the Commonwealth System of …, priority 2009, dated 2014).

Structures are written as SMILES. Where a SMILES comes first, the peptide text is derived from it. [ ]: non-standard residue; d: D form. The star is where a group is joined. NH(TEMPO-4-yl) = CC1(C)CC(N*)CC(C)(C)N1[O]; Orn = NCCC[C@H](N)C(=O)O; Cbz = O=C(OCc1ccccc1)*; Boc = CC(C)(C)OC(=O)*

The data set in a line: log octanal/water (Ko/w) partition coefficient. The class given is physicochemical. From the text: A practical skin patch is planned for delivery of JP4-039 or other compounds delivered herein. The patch can be administered to a subject before, during or after exposure to radiation, including 24 hr or later after irradiation exposure of the subject. In preliminary studies, we sought to characterize the absorption/penetration of a topically applied representative GS-Nitroxide XJB-5-125 in mouse skin. XJB-5-125 was selected as a potential topical agent based on its ability to inhibit ROS generation, inhibit apoptosis and suppress oxidative damage to mitochondrial lipids. […] The physical properties of a chemical are critical to its ability to penetrate into and through the skin. Two important factors are the log octanal/water (Ko/w) partition coefficient and the molecular weight. For XJB-5-125, the log Ko/w=4.5 and molecular weight is 956. The lipophilicity “rule” is based on the need for a compound to partition out of the lipophilic stratum corneum and into the more hydrophilic epidermis and dermis.

In the case of `CC(C)C[C@H](NC(=O)OC(C)(C)C)C(=O)N[C@H](Cc1ccccc1)C(=O)N1CCC[C@H]1C(=O)N[C@H](C(=O)N[C@@H](CCCNC(=O)OCc1ccccc1)C(=O)NC1CC(C)(C)N([O])C(C)(C)C1)C(C)C` [XJB-5-125] (Boc-L[dF]PV[Orn](Cbz)-{NH(TEMPO-4-yl)}), the “log Ko/w” value is listed as 4.5.
